From ChEMBL document CHEMBL4311969, “Polygala tenuifolia-Acori tatarinowii herbal pair as an inspiration for substituted cinnamic α-asaronol esters: Design, synthesis, anticonvulsant activity, and inhibition of lactate dehydrogenase study” (Eur J Med Chem, 2019)
“And” between values parts separate entries of the source, which are not always exact repeats. Equal values may be shown once. The source made the active and inactive calls. No cut-off for these calls is given here.

Columns and labels:
[1] = system: Mus musculus; assay: Anticonvulsant activity in Kunming mouse assessed as reduction in Sc3-MP-induced clonic seizure rate at 300 mg/kg, ip administered 0.5 hrs before Sc3-MP stimulation relative to control; assay type: functional; set-up: scale not given: the % may be the effect or the level left
[2] = system: Mus musculus; assay: Anticonvulsant activity in Kunming mouse assessed as reduction in Sc3-MP-induced tonic seizure rate at 300 mg/kg, ip administered 0.5 hrs before Sc3-MP stimulation relative to control; assay type: functional; set-up: scale not given: the % may be the effect or the level left
[3] = system: Mus musculus; assay: Anticonvulsant activity in Kunming mouse assessed as MES-induced hind limb extension at 100 mg/kg, ip administered 0. 5 to 2 hrs before MES stimulation; assay type: functional, organism-based
[4] = system: Mus musculus; assay: Anticonvulsant activity in Kunming mouse assessed as MES-induced hind limb extension at 100 mg/kg, ip administered 3 hrs before MES stimulation; assay type: functional, organism-based
[5] = Neurotoxicity against Kunming mouse assessed as time remained in rod at 100 mg/kg, ip administered 0.5 to 2 hrs by rotarod test; assay type: toxicity, organism-based; conditions: in vivo
[6] = system: Mus musculus; assay: Anticonvulsant activity in Kunming mouse assessed as MES-induced hind limb extension at 50 mg/kg, ip administered 0.5 to 4 hrs before MES stimulation relative to control; assay type: functional
[7] = system: Mus musculus; assay: Anticonvulsant activity in Kunming mouse assessed as MES-induced hind limb extension at 50 mg/kg, ip administered 0.5 and 2 hrs before MES stimulation relative to control; assay type: functional
[8] = system: Mus musculus; assay: Anticonvulsant activity in Kunming mouse assessed as reduction in ScPTZ-induced seizure at 300 mg/kg, ip administered 0.25 to 2 hrs before ScPTZ stimulation relative to control; assay type: functional; set-up: scale not given: the % may be the effect or the level left
[9] = system: Mus musculus; assay: Anticonvulsant activity in Kunming mouse assessed as reduction in ScPTZ-induced seizure at 100 mg/kg, ip administered 0.25 to 2 hrs before ScPTZ stimulation relative to control; assay type: functional
[10] = system: Mus musculus; assay: Anticonvulsant activity in Kunming mouse assessed as reduction in ScPTZ-induced seizure at 100 mg/kg, ip administered 0.25 and 1 hrs before ScPTZ stimulation relative to control; assay type: functional; set-up: scale not given: the % may be the effect or the level left
[11] = system: Mus musculus; assay: Anticonvulsant activity in Kunming mouse assessed as reduction in ScPTZ-induced clonic seizure at 300 mg/kg, ip administered 0.5 hrs before ScPTZ stimulation relative to control; assay type: functional; set-up: scale not given: the % may be the effect or the level left
[12] = system: Mus musculus; assay: Anticonvulsant activity in Kunming mouse assessed as reduction in ScPTZ-induced clonic seizure at 100 mg/kg, ip administered 0.5 hrs before ScPTZ stimulation relative to control; assay type: functional; set-up: scale not given: the % may be the effect or the level left
[13] = system: Mus musculus; assay: Anticonvulsant activity in Kunming mouse assessed as reduction in ScPTZ-induced tonic seizure rate at 300 mg/kg, ip administered 0.5 hrs before ScPTZ stimulation relative to control; assay type: functional; set-up: scale not given: the % may be the effect or the level left
[14] = system: Mus musculus; assay: Anticonvulsant activity in Kunming mouse assessed as reduction in ScPTZ-induced tonic seizure rate at 100 mg/kg, ip administered 0.5 hrs before ScPTZ stimulation relative to control; assay type: functional; set-up: scale not given: the % may be the effect or the level left
[15] = system: Mus musculus; assay: Anticonvulsant activity in Kunming mouse assessed as reduction in Sc3-MP-induced seizure at 300 mg/kg, ip administered 0.25 and 1 hrs before Sc3-MP stimulation relative to control; assay type: functional, organism-based
[16] = system: Mus musculus; assay: Anticonvulsant activity in Kunming mouse assessed as reduction in Sc3-MP-induced seizure at 300 mg/kg, ip administered 0.5 hrs before Sc3-MP stimulation relative to control; assay type: functional; set-up: scale not given: the % may be the effect or the level left
[17] = system: Mus musculus; assay: Anticonvulsant activity in ip dosed Kunming mouse assessed as MES-induced hind limb extension administered 0.5 hrs before MES stimulation; assay type: functional
[18] = system: Mus musculus; assay: Anticonvulsant activity in ip dosed Kunming mouse assessed as reduction in ScPTZ-induced seizure administered 0.5 hrs before ScPTZ stimulation; assay type: functional
[19] = system: Mus musculus; assay: Anticonvulsant activity in Kunming mouse assessed as reduction in Sc3-MP-induced seizure ip dosed measured at 0.5 hrs before Sc3-MP stimulation; assay type: functional
[20] = system: Mus musculus; assay: […] activity in ip dosed Kunming mouse assessed as reduction in formalin-induced paw licking administered 0.5 hrs before formalin stimulation; assay type: functional
[21] = Neurotoxicity against ip dosed Kunming mouse assessed as time remained in rod measured at 0.5 hrs by rotarod test; assay type: toxicity, organism-based; conditions: in vivo
[22] = Protective index, ratio of TD50 for neurotoxicity against ip dosed Kunming mouse assessed as time remained in rod measured at 0.5 hrs by rotarod test to ED50 for anticonvulsant activity in ip dosed Kunming mouse assessed as MES-induced hind limb extension administered 0.5 hrs; assay type: toxicity, organism-based; conditions: in vivo, read-out: PI
[23] = Protective index, ratio of TD50 for neurotoxicity against ip dosed Kunming mouse assessed as time remained in rod measured at 0.5 hrs by rotarod test to ED50 for anticonvulsant activity in ip dosed Kunming mouse assessed as reduction in ScPTZ-induced seizure administered 0.5 hrs before ScPTZ stimulation; assay type: toxicity, organism-based; conditions: in vivo, read-out: PI
[24] = Protective index, ratio of TD50 for neurotoxicity against ip dosed Kunming mouse assessed as time remained in rod measured at 0.5 hrs by rotarod test to ED50 for anticonvulsant activity in ip dosed Kunming mouse assessed as reduction in Sc3-MP-induced seizure administered 0.5 hrs before Sc3-MP stimulation; assay type: toxicity, organism-based; conditions: in vivo, read-out: PI
[25] = Protective index, ratio of TD50 for neurotoxicity against ip dosed Kunming mouse assessed as time remained in rod measured at 0.5 hrs by rotarod test to ED50 for […] activity in ip dosed Kunming mouse assessed as reduction in formalin-induced paw licking administered 0.5 hrs before formalin stimulation; assay type: toxicity, organism-based; conditions: in vivo, read-out: PI
[26] = species on record: Homo sapiens; assay: Inhibition of human LDH1 at 0.5 mM using sodium pyruvate as substrate by UV-VIS spectrophotometry method relative to control
[27] = species on record: Homo sapiens; assay: Inhibition of human LDH5 at 0.5 mM using sodium pyruvate as substrate by UV-VIS spectrophotometry method relative to control
[28] = species on record: Homo sapiens; assay: Inhibition of human LDH1 at 0.5 mM using sodium pyruvate as substrate measured for 60 sec for every 5 mins by LC/MS-MS analysis
[29] = species on record: Homo sapiens; assay: Inhibition of human LDH5 at 0.5 mM using sodium pyruvate as substrate measured for 60 sec for every 5 mins by LC/MS-MS analysis
[30] = Noncompetitive inhibition of human LDH1 at 0.5 mM using sodium pyruvate as substrate by UV-VIS spectrophotometry method based Lineweaver-Burk plot analysis
[31] = Noncompetitive inhibition of human LDH5 at 0.5 mM using sodium pyruvate as substrate by UV-VIS spectrophotometry method based Lineweaver-Burk plot analysis
[32] = system: Mus musculus; assay: Anticonvulsant activity in Kunming mouse assessed as MES-induced hind limb extension at 100 mg/kg, ip administered 0. 5 hrs before MES stimulation relative to control; assay type: functional
[33] = system: Mus musculus; assay: Anticonvulsant activity in Kunming mouse assessed as MES-induced hind limb extension at 100 mg/kg, ip administered 0. 5 to 4 hrs before MES stimulation relative to control; assay type: functional
[34] = system: Mus musculus; assay: Anticonvulsant activity in Kunming mouse assessed as reduction in ScPTZ-induced seizure at 100 mg/kg, ip administered 0.5 hrs before ScPTZ stimulation relative to control; assay type: functional; set-up: scale not given: the % may be the effect or the level left
[35] = system: Mus musculus; assay: Anticonvulsant activity in Kunming mouse assessed as reduction in Sc3-MP-induced mortality rate at 300 mg/kg, ip administered 0.5 hrs before Sc3-MP stimulation relative to control; assay type: functional; set-up: scale not given: the % may be the effect or the level left

SMILES	Activity [1] [%]	Activity [2] [%]	Activity [3]	Activity [5]	Activity [6] [%]	Activity [8] [%]	Activity [9]	Activity [11] [%]	Activity [12] [%]	Activity [13] [%]	Activity [14] [%]	ED50 [17]	ED50 [18]	ED50 [19]	ED50 [20]	TD50 at 0.5 h [21]	selectivity ratio at 0.5 h [22]	selectivity ratio at 0.5 h [23]	selectivity ratio at 0.5 h [24]	selectivity ratio at 0.5 h [25]	other results
COc1cc(OC)c(OC)cc1/C=C/COC(=O)/C=C/c1cc(OC)c(OC)c(OC)c1	100	75	Active	Non-Toxic	50	50	inactive	100	100	25	100	74.7 µmol/kg and 33.2 mg/kg	204 mg/kg and 458 µmol/kg	> 200 mg/kg and > 450 µmol/kg	85.5 mg/kg and 192 µmol/kg	2220 µmol/kg and 988 mg/kg	29.8	4.9	3.3	11.6	Activity [4]: Active; Activity [7]: 75%; Activity [10]: 75%; Activity [15]: Active; Activity [16]: 50%; inhibition [26]: 10%; inhibition [27]: 13%; inhibition [28]: 10%; inhibition [29]: 13%; Ki [30]: 14.1 µM; Ki [31]: 3.35 µM; Activity [32]: 100%; Activity [33]: 25 - 100%
COc1cc(OC)c(/C=C/C(=O)OC/C=C/c2cc(OC)c(OC)cc2OC)c(OC)c1	100	75	Active	Non-Toxic	50	50	inactive	100	100	0	100	157 µmol/kg and 69.8 mg/kg	212 mg/kg and 476 µmol/kg	> 300 mg/kg and > 675 µmol/kg	99 mg/kg and 223 µmol/kg	> 2250 µmol/kg and > 1000 mg/kg	> 14.3	> 4.7	3.3	> 10.1	Activity [4]: Active; Activity [34]: 100%; Activity [35]: 25%; inhibition [28]: Active; inhibition [29]: Active; Activity [33]: 25 - 100%
COc1cc(OC)c(OC)cc1/C=C/COC(=O)/C=C/c1ccc(OC)c(OC)c1OC	100	75	Active	Non-Toxic	50	50	inactive	100	100	25	100	33.4 mg/kg and 75.1 µmol/kg	203 mg/kg and 456 µmol/kg	> 300 mg/kg and > 675 µmol/kg	78.4 mg/kg and 176 µmol/kg	> 1000 mg/kg and > 2250 µmol/kg	> 29.9	> 4.9	3.3	> 12.8	Activity [7]: 50%; Activity [10]: 75%; inhibition [26]: 7%; inhibition [27]: 8%; Activity [32]: 100%; Activity [33]: 25 - 100%
COc1cc(OC)c(OC)cc1/C=C/COC(=O)/C=C/c1c(OC)ccc(OC)c1OC	100	75	Active	Non-Toxic	50	50	inactive	100	100	50	100	120 µmol/kg and 53.5 mg/kg	212 mg/kg and 476 µmol/kg	> 300 mg/kg and > 675 µmol/kg	180 to 225 µmol/kg	> 1000 mg/kg and > 2250 µmol/kg	> 18.7	4.72	3.3	12.5	Activity [7]: 50%; Activity [35]: 25%; inhibition [26]: Active; inhibition [27]: Active; Ki [30]: 12 µM; Ki [31]: 3.52 µM; Activity [32]: 100%; Activity [33]: 25 - 100%
